Laboratory results published in ChEMBL document CHEMBL3217428, “Synthesis and evaluation of novel 5-sulfonyl-indolin-2-ones as potent cytotoxic agents” (Medchemcomm, 2011).
pIC50: −log10 of the molar value. Calls of active or inactive are those of the source. The rule behind the calls is not given here.

Tests used:
[1] = tested on: HCT-116; assay: Cytotoxicity against human HCT116 cells; assay type: functional, cell-based
[2] = Cytotoxicity against human ECA109 cells; assay type: functional, cell-based; conditions: ECa-109
[3] = tested on: A549; assay: Cytotoxicity against human A549 cells; assay type: functional, cell-based
[4] = Cytotoxicity against human SGC7901 cells; assay type: functional, cell-based; conditions: SGC-7901
[5] = molecular target: Fibroblast growth factor receptor 2 (Homo sapiens) (UniProt P21802); assay: Inhibition of FGFR2 (unknown origin) at 50 uM
Sequence of Fibroblast growth factor receptor 2 (Homo sapiens) (P21802 22-821 limits assumed): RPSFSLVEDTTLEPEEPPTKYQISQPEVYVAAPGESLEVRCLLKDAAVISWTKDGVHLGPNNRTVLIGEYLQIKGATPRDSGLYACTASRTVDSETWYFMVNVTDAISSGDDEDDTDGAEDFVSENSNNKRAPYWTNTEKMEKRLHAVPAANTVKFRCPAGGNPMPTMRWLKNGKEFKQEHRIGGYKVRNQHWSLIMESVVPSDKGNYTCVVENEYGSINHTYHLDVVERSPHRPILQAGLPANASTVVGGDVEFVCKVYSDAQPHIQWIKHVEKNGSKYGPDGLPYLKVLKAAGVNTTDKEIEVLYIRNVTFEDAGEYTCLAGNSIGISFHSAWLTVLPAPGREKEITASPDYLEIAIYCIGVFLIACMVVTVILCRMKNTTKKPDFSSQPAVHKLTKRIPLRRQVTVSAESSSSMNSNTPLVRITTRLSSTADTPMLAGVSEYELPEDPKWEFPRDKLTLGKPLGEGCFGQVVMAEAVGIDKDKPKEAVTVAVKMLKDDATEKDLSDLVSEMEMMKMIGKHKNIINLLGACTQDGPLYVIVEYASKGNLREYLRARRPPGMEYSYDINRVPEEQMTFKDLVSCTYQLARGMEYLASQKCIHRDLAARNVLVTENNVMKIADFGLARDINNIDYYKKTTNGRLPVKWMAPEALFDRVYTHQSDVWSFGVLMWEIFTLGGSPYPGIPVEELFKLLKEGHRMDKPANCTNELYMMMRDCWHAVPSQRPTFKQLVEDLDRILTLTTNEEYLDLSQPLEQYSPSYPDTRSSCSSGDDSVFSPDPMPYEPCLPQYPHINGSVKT

[6] = tested on: HUVEC; assay: Antiangiogenic activity in HUVEC assessed as reduction in tube formation by matrigel assay; assay type: functional, cell-based; conditions: Homo sapiens
[7] = tested on: A549; assay: Induction of apoptosis in human A549 cells at 5 uM after 72 hrs by flow cytometry; assay type: functional
[8] = tested on: HUVEC; assay: Antiangiogenic activity in HUVEC assessed as reduction in anastomoses formation by matrigel assay; assay type: functional, cell-based; conditions: Homo sapiens
[9] = tested on: A549; assay: Induction of apoptosis in human A549 cells assessed as hypodiploid DNA at 5 uM after 72 hrs by flow cytometry; assay type: functional, cell-based
[10] = tested on: HUVEC; assay: Antimigratory activity in HUVEC at 2 uM; assay type: functional, cell-based; conditions: Homo sapiens
[11] = tested on: A549; assay: Cell cycle arrest in human A549 cells assessed as accumulation at sub-G0/G1 phase at 5 uM after 72 hrs by flow cytometry; assay type: functional
[12] = tested on: A549; assay: Induction of apoptosis in human A549 cells assessed as DNA fragmentation at 1.25 to 5 uM after 72 hrs by flow cytometry; assay type: functional, cell-based

Row | SMILES | pIC50 [1] | pIC50 [2] | pIC50 [3] | pIC50 [4] | inhibition [5] | Activity [6] | Activity [7] | Activity [8] | Activity [9] | Activity [10] | Activity [11] | Activity [12] | inhibition [3]
1 | CCN(CC)CCNC(=O)c1c(C)[nH]c(/C=C2\C(=O)Nc3ccc(/C=C/S(=O)(=O)Cc4ccc(F)cc4)cc32)c1C | < 4.90 | < 4.90 | < 4.90 | < 4.90 | – | – | – | – | – | – | – | – | –
2 | CCN(CC)CCNC(=O)c1c(C)[nH]c(/C=C2\C(=O)Nc3ccc(/C=C/S(=O)(=O)Cc4ccccc4)cc32)c1C | 4.86 | 4.97 | 5.09 | 4.84 | – | – | – | – | – | – | – | – | –
3 | Cc1[nH]c(/C=C2\C(=O)Nc3ccc(/C=C/S(=O)(=O)c4ccc(F)cc4)cc32)c(C)c1C(=O)NCCCN(C)C | 5.01 | 5.54 | < 4.90 | 5.20 | – | – | – | – | – | – | – | – | –
4 | CCN(CC)CCCNC(=O)c1c(C)[nH]c(/C=C2\C(=O)Nc3ccc(/C=C/S(=O)(=O)c4ccc(F)cc4)cc32)c1C | 5.24 | 5.32 | < 4.90 | 5.46 | – | – | – | – | – | – | – | – | –
5 | CCN(CC)CCNC(=O)c1c(C)[nH]c(/C=C2\C(=O)Nc3ccc(S(=O)(=O)/C=C/c4ccc(Cl)cc4)cc32)c1C | 5.71 | 5.32 | 5.55 | 5.59 | 72% | – | – | – | – | – | – | – | –
6 | CCN(CC)CCNC(=O)c1c(C)[nH]c(/C=C2\C(=O)Nc3ccc(S(=O)(=O)/C=C/c4ccccc4)cc32)c1C | 5.62 | 5.86 | 5.54 | 5.30 | – | – | – | – | – | – | – | – | –
7 | CCN(CC)CCNC(=O)c1c(C)[nH]c(/C=C2\C(=O)Nc3ccc(F)cc32)c1C [SUNITINIB] | 5.68 | 4.77 | 4.73 | 4.73 | 61.8% | Dose-dependent effect | 15.81% | Dose-dependent effect | – | – | – | – | –
8 | CCN(CC)CCNC(=O)c1c(C)[nH]c(/C=C2\C(=O)Nc3ccc(/C=C/S(=O)(=O)Cc4ccc(Cl)cc4)cc32)c1C | < 4.60 | < 4.60 | < 4.60 | < 4.60 | – | – | – | – | – | – | – | – | –
9 | CCN(CC)CCNC(=O)c1c(C)[nH]c(/C=C2\C(=O)Nc3ccc(/C=C/S(=O)(=O)c4ccccc4)cc32)c1C | 5.19 | 5.57 | 5.16 | 5.24 | – | – | – | – | – | – | – | – | –
10 | CCN(CC)CCNC(=O)c1c(C)[nH]c(/C=C2\C(=O)Nc3ccc(/C=C/S(=O)(=O)c4ccc(Br)cc4)cc32)c1C | 5.47 | 5.21 | 5.28 | 5.64 | 67.8% | – | – | – | – | – | – | – | –
11 | CCN(CC)CCNC(=O)c1c(C)[nH]c(/C=C2\C(=O)Nc3ccc(/C=C/S(C)(=O)=O)cc32)c1C | 5.58 | 4.90 | 4.54 | 4.78 | – | – | – | – | – | – | – | – | –
12 | O=c1c(O)c(-c2ccc(O)c(O)c2)oc2cc(O)cc(O)c12 | – | – | – | – | 67.3% | – | – | – | – | – | – | – | –
13 | Cc1[nH]c(/C=C2\C(=O)Nc3ccc(/C=C/S(=O)(=O)c4ccc(F)cc4)cc32)c(C)c1C(=O)NCCN(C)C | 5.14 | 5.52 | 5.18 | 5.20 | – | – | – | – | – | – | – | – | –
14 | CCN(CC)CCNC(=O)c1c(C)[nH]c(/C=C2\C(=O)Nc3ccc(/C=C/S(=O)(=O)Cc4cccc(F)c4)cc32)c1C | 4.90 | 5.13 | 5.08 | 4.96 | – | – | – | – | – | – | – | – | –
15 | CCN(CC)CCNC(=O)c1c(C)[nH]c(/C=C2\C(=O)Nc3ccc(/C=C/S(=O)(=O)c4ccc(F)cc4)cc32)c1C | 5.74 | 5.24 | – | 5.16 | 76.6% | Dose-dependent effect | – | Dose-dependent effect | Active | Active | 68.21% | Active | Dose-dependent effect
